Test results published in patent publication US8012982B2, “Modulators of HCV replication” (priority 2004, dated 2011).
Like-named read-outs stand apart in the source and are kept apart here.

Experiments:
pHCVNeo17.wt replicon = type: cell-based; conditions: for Replicon Activation Yes/No: pHCVNeo17.wt replicon in 10AIFN cells, cultured 4 days, Cell-ELISA
pHCVNeo17.m10 replicon = experiment: microbe, parasite or virus in culture; type: cell-based; conditions: pHCVNeo17.m10 replicon in 10AIFN cells, cultured 4 days, Cell-ELISA, read-out: Replicon Inhibition Range IC50
[1] = test system: HCV replicons derived from the Con1 isolate in mouse hepatoma cell line Hepa1-6; type: cell-based
[2] = test system: HCV replicons in resistant cell clones; type: cell-based; conditions: fold increase of IC50
[3] = test system: non-adapted full length Con1 genomes; type: cell-based; conditions: lesser extent than with the corresponding replicons
[4] = test system: pFL.m10 genomic replicon (adapted full length HCV genome); type: cell-based, HCV isolate Con1
[5] = test system: HCV replicons derived from the Con1 isolate in human HeLa cells; type: cell-based
pHCVNeo17.m36 replicon = experiment: microbe, parasite or virus in culture; type: cell-based; conditions: Hepatitis C virus; replicon pHCVNeo17.m36: K@2039, Y2065H; read-out: Cmpd Ib IC50
pHCVNeo17.m5 replicon = experiment: microbe, parasite or virus in culture; type: cell-based; conditions: Hepatitis C virus; replicon pHCVNeo17.m5: K@2039; read-out: Cmpd Ib IC50
[6] = test system: HCV replicon in resistant clone 10AB3; experiment: microbe, parasite or virus in culture; type: cell-based; conditions: Hepatitis C virus, Cell-ELISA, read-out: IC50 Compound (Ib)
pHCVNeo17.SI replicon = experiment: microbe, parasite or virus in culture; type: cell-based; conditions: Hepatitis C virus, 96 h; subgenomic pHCVNeo17.SI, Con1, S2204I; 10AIFN cells, four days after transfection
pHCVNeo17.m50 replicon = experiment: microbe, parasite or virus in culture; type: cell-based; conditions: Hepatitis C virus; replicon pHCVNeo17.m50: K@2039, R2129W; read-out: Cmpd Ib IC50
[7] = test system: non-adapted replicons derived from the BK isolate of HCV; type: cell-based
pBK-RMSI replicon = experiment: microbe, parasite or virus in culture; type: cell-based; conditions: Hepatitis C virus, 96 h; subgenomic pBK-RMSI, BK, R1496M + S2204I; 10AIFN cells, four days after transfection
pHCVNeo17.m30 replicon = type: cell-based; conditions: replicon pHCVNeo17.m30: H2057R
[8] = test system: HCV replicon in resistant clone 10AB7; experiment: microbe, parasite or virus in culture; type: cell-based; conditions: Hepatitis C virus, Cell-ELISA, read-out: IC50 Compound (Ib)
pHCVNeo17.RG replicon = experiment: microbe, parasite or virus in culture; type: cell-based; conditions: Hepatitis C virus, 96 h; subgenomic pHCVNeo17.RG, Con1, R2884G; 10AIFN cells, four days after transfection
[9] = test system: HCV replicon in resistant clone 10AB2; experiment: microbe, parasite or virus in culture; type: cell-based; conditions: Hepatitis C virus, Cell-ELISA, read-out: IC50 Compound (Ib)
cell proliferation = conditions: relative to concentrations effective on the replicon
[10] = test system: HCV replicon in resistant clone 10AB11; experiment: microbe, parasite or virus in culture; type: cell-based; conditions: Hepatitis C virus, Cell-ELISA, read-out: IC50 Compound (Ib)
pHCVNeo17.m29 replicon = experiment: microbe, parasite or virus in culture; type: cell-based; conditions: Hepatitis C virus, read-out: Cmpd Ib IC50 (μM)
[11] = test system: HCV replicon in HBI10A cells; experiment: microbe, parasite or virus in culture; type: cell-based; conditions: Hepatitis C virus
pHCVNeo17.m35 replicon = type: cell-based; conditions: replicon pHCVNeo17.m35: Y2065H
NS5A protein = NS5A protein (Hepatitis C virus genotype 1b, UniProt Q9WMX2, INS2039K); type: cell-based; conditions: HBI10A cells, 2 μM compound (Ib), pulse-chase
[12] = relative to concentrations effective on the replicon
pHCVNeo17.m21 replicon = experiment: microbe, parasite or virus in culture; type: cell-based; conditions: Hepatitis C virus; replicon pHCVNeo17.m21: K@2039, S2404P; read-out: Cmpd Ib IC50

With `CC(C)(C)OC(=O)N1CCN(c2ccc(C(=O)Nc3ccc(/C=C/c4ccc(O)cc4)cc3)cc2)CC1` [Example 116, tert-butyl 4-{4-[({4-[(E)-2-(4-hydroxyphenyl)vinyl]phenyl}amino)carbonyl]phenyl}piperazine-1-carboxylate] the “Replicon Activation Yes/No” value (pHCVNeo17.wt replicon) was “No” and the IC50 (pHCVNeo17.m10 replicon; Hepatitis C virus, 96 h) was less than 1000 nM.

In the case of `CC(C)(C)OC(=O)N1CCN(c2ccc(NC(=O)c3ccc(O)cc3)cc2)CC1` [Example 603, tert-butyl 4-{4-[(4-hydroxybenzoyl)amino]phenyl}piperazine-1-carboxylate], the “Replicon Activation Yes/No” value (pHCVNeo17.wt replicon) is reported as “No” and the IC50 (pHCVNeo17.m10 replicon; Hepatitis C virus, 96 h) is reported as greater than 1000 nM.

For `CC(C)(C)OC(=O)N1CCN(c2ccc(C(=O)Nc3cccc(Br)c3)cc2)CC1` [Example 103, tert-butyl 4-(4-{[(3-bromophenyl)amino]carbonyl}phenyl)piperazine-1-carboxylate], the “Replicon Activation Yes/No” value (pHCVNeo17.wt replicon) was “No” and the IC50 (pHCVNeo17.m10 replicon; Hepatitis C virus, 96 h) was less than 1000 nM.

For `CC(C)(C)C(=O)N1CCN(c2ccc(C(=O)Nc3ccc(O)cc3)cc2)CC1` [Example 403, 4-[4-(2,2-dimethylpropanoyl)piperazin-1-yl]-N-(4-hydroxyphenyl)benzamide], the “Replicon Activation Yes/No” value (pHCVNeo17.wt replicon) was “No” and the IC50 (pHCVNeo17.m10 replicon; Hepatitis C virus, 96 h) was less than 1000 nM.

With `CC(C)COC(=O)N1CCN(c2ccc(C(=O)Nc3ccc(O)cc3)cc2)CC1` [Example 201, isobutyl 4-(4-{[(4-hydroxyphenyl)amino]carbonyl}phenyl)piperazine-1-carboxylate] the “Replicon Activation Yes/No” value (pHCVNeo17.wt replicon) was “No” and the IC50 (pHCVNeo17.m10 replicon; Hepatitis C virus, 96 h) was greater than 1000 nM.

In the case of `C[C@@H](NC(=O)N1CCN(c2ccc(C(=O)Nc3ccc(O)cc3)cc2)CC1)c1ccccc1` [Example 306, 4-(4-{[(4-hydroxyphenyl)amino]carbonyl}phenyl)-N-[(1R)-1-phenylethyl] piperazine-1-carboxamide], the “Replicon Activation Yes/No” value (pHCVNeo17.wt replicon) is reported as “No” and the IC50 (pHCVNeo17.m10 replicon) is reported as less than 1000 nM.

In the case of `CC(C)(C)OC(=O)N1CCN(c2ccc(C(=O)Nc3ccc(O)cc3)cc2)CC1` [Example 101, tert-butyl 4-(4-{[(4-hydroxyphenyl)amino]carbonyl}phenyl)piperazine-1-carboxylate], the “Inhibition of HCV replicons in Hepa1-6 cells” value [1] is reported as “inhibited with comparable potencies”, the “IC50 in resistant cell clones relative to parental cells” value [2] is reported as “at least ten times higher” and the “Stimulation of replication of non-adapted full length Con1 genomes” value [3] is reported as “stimulated replication”. For the same compound, the “Inhibition of replication of an adapted full length HCV genome” value [4] was “inhibited with comparable potency”, the “Inhibition of HCV replicons in HeLa cells” value [5] was “inhibited with comparable potencies” and the IC50 (pHCVNeo17.m36 replicon) was greater than 2000 nM. The IC50 (pHCVNeo17.m5 replicon) was 100 nM, the IC50 [6] was greater than 2000 nM and the IC50 (pHCVNeo17.SI replicon) was 100 nM. For the same compound, the IC50 (pHCVNeo17.m50 replicon) was greater than 2000 nM, the “Activation of replication of non-adapted BK replicons” value [7] was “activated replication” and the IC50 (pBK-RMSI replicon) was 650 nM. For the same compound, the “Cmpd Ib IC50 (μM)” value (pHCVNeo17.m30 replicon) was “activation”, the IC50 [8] was greater than 2000 nM and the IC50 (pHCVNeo17.RG replicon) was less than 50 nM. For the same compound, the IC50 [9] was greater than 2000 nM, the “Inhibition of cell proliferation, 14C thymidine incorporation” value (cell proliferation) was “only at concentrations two orders of magnitude higher than those effective on the replicon” and the IC50 [10] was greater than 2000 nM. The IC50 (pHCVNeo17.m29 replicon) was greater than 2 µM, the “Replicon Activation Yes/No” value (pHCVNeo17.wt replicon) was “Yes” and the “Cmpd Ib IC50 (μM)” value (pHCVNeo17.wt replicon; replicon pHCVNeo17.Wt, no mutations) was “^bactivation”. For the same compound, the IC50 ([11]; HBI10A replicon cells, read-out: IC50, dose-dependent inhibition of HCV replication) was 120 ± 60 nM, the IC50 ([11]; parental clone HBI10A, Cell-ELISA, read-out: IC50 Compound (Ib)) was 100 ± 50 nM and the “Cmpd Ib IC50 (μM)” value (pHCVNeo17.m35 replicon) was “No effect”. For the same compound, the “Conversion of NS5A p56 into hyperphosphorylated p58” value (NS5A protein) was “the rate and the extent of conversion of the p56 into p58 were reduced”, the “Toxicity, MTT cytotoxicity assay” value [12] was “only at concentrations two orders of magnitude higher than those effective on the replicon” and the IC50 (pHCVNeo17.m10 replicon; Hepatitis C virus, 96 h) was less than 1000 nM. It also gave an IC50 (pHCVNeo17.m21 replicon) of 38 nM.

In the case of `O=C(Nc1ccc(O)cc1)c1ccc(N2CCN(C(=O)OCc3ccccc3)CC2)cc1` [Example 216, benzyl 4-(4-{[(4-hydroxyphenyl)amino]carbonyl}phenyl)piperazine-1-carboxylate], the “Replicon Activation Yes/No” value (pHCVNeo17.wt replicon) is reported as “Yes” and the IC50 (pHCVNeo17.m10 replicon; Hepatitis C virus, 96 h) is reported as less than 1000 nM.

For `O=C(Nc1ccc(O)cc1)c1ccc(N2CCN(S(=O)(=O)/C=C/c3ccccc3)CC2)cc1` [Example 503, N-(4-hydroxyphenyl)-4-(4-{[(E)-2-phenylvinyl]sulfonyl}piperazin-1-yl)benzamide], the “Replicon Activation Yes/No” value (pHCVNeo17.wt replicon) was “No” and the IC50 (pHCVNeo17.m10 replicon; Hepatitis C virus, 96 h) was greater than 1000 nM.

With `COc1ccc(CNC(=O)N2CCN(c3ccc(C(=O)Nc4ccc(O)cc4)cc3)CC2)cc1` [Example 303, 4-(4-{[(4-hydroxyphenyl)amino]carbonyl}phenyl)-N-(4-methoxybenzyl)piperazine-1-carboxamide] the “Replicon Activation Yes/No” value (pHCVNeo17.wt replicon) was “Yes” and the IC50 (pHCVNeo17.m10 replicon; Hepatitis C virus, 96 h) was less than 1000 nM.

For `CC(=O)Oc1ccc(NC(=O)c2ccc(N3CCN(C(=O)OC(C)(C)C)CC3)cc2)cc1` [Example 123, tert-butyl 4-[4-({[4-(acetyloxy)phenyl]amino}carbonyl)phenyl]piperazine-1-carboxylate], the “Replicon Activation Yes/No” value (pHCVNeo17.wt replicon) was “Yes” and the IC50 (pHCVNeo17.m10 replicon; Hepatitis C virus, 96 h) was less than 1000 nM.

For `CC(=O)c1cccc(NC(=O)c2ccc(N3CCN(C(=O)OC(C)(C)C)CC3)cc2)c1` [Example 108, tert-butyl 4-(4-{[(3-acetylphenyl)amino]carbonyl}phenyl)piperazine-1-carboxylate], the “Replicon Activation Yes/No” value (pHCVNeo17.wt replicon) was “No” and the IC50 (pHCVNeo17.m10 replicon; Hepatitis C virus, 96 h) was greater than 1000 nM.

With `C=Cc1ccc(NC(=O)c2ccc(N3CCN(C(=O)OC(C)(C)C)CC3)cc2)cc1` [Example 115, tert-butyl 4-(4-{[(4-vinylphenyl)amino]carbonyl}phenyl)piperazine-1-carboxylate] the “Replicon Activation Yes/No” value (pHCVNeo17.wt replicon) was “No” and the IC50 (pHCVNeo17.m10 replicon; Hepatitis C virus, 96 h) was greater than 1000 nM.

For `CC(C)(C)OC(=O)N1CCC(c2ccc(C(=O)Nc3ccc(O)cc3)cc2)CC1` [Example 602, tert-butyl 4-(4-{[(4-hydroxyphenyl)amino]carbonyl}phenyl)piperidine-1-carboxylate], the “Replicon Activation Yes/No” value (pHCVNeo17.wt replicon) was “No” and the IC50 (pHCVNeo17.m10 replicon; Hepatitis C virus, 96 h) was greater than 1000 nM.

For `O=C(Nc1ccc(O)cc1)c1ccc(N2CCN(C(=O)C3CCCCC3)CC2)cc1` [Example 401, 4-[4-(cyclohexylcarbonyl)piperazin-1-yl]-N-(4-hydroxyphenyl)benzamide], the “Replicon Activation Yes/No” value (pHCVNeo17.wt replicon) was “No” and the IC50 (pHCVNeo17.m10 replicon; Hepatitis C virus, 96 h) was less than 1000 nM.

In the case of `CC(C)(C)OC(=O)N1CCN(c2ccc(C(=O)Nc3ccc(C(=O)c4ccccc4)cc3)cc2)CC1` [Example 112, tert-butyl 4-(4-{[(4-benzoylphenyl)amino]carbonyl}phenyl)piperazine-1-carboxylate], the “Replicon Activation Yes/No” value (pHCVNeo17.wt replicon) is reported as “No” and the IC50 (pHCVNeo17.m10 replicon; Hepatitis C virus, 96 h) is reported as less than 1000 nM.

In the case of `CC(C)(C)NC(=O)N1CCN(c2ccc(C(=O)Nc3ccc(O)cc3)cc2)CC1` [Example 302, N-(tert-butyl)-4-(4-{[(4-hydroxyphenyl)amino]carbonyl}phenyl)piperazine-1-carboxamide], the “Replicon Activation Yes/No” value (pHCVNeo17.wt replicon) is reported as “Yes” and the IC50 (pHCVNeo17.m10 replicon; Hepatitis C virus, 96 h) is reported as less than 1000 nM.
